Structures can show the parent of a compound that is named as a salt.
Tested on: human form of induced nitric oxide synthase in DLD-1 cells
Test: Screen 3: nitrite accumulation (Griess) in cytokine-induced DLD-1 cells
Format: cell-based
Conditions: DLD-1 cells induced with gamma-IFN, TNF-alpha, IL-6, IL-1-beta, 5 hours with compound, read-out: IC50 (inhibition of nitrite accumulation)
Experimental: The human colorectal carcinoma cell line, DLD-1 (obtained from the European Collection of Animal Cell Culture—cell line number 90102540) was routinely grown in RPMI 1640 supplemented with 10% (v/v) foetal bovine serum, and 2 mM L-glutamine, at 37° C. in 5% CO2. Nitric oxide synthase was induced in cells by addition of medium containing human recombinant gamma-IFN (1000 units/ml), TNF-alpha (200 U/ml), IL-6 (200 U/ml) and IL-1-beta (250 U/ml). After incubation for 18 hours at 37° C., the medium was removed and the cells washed with warm phosphate buffered saline. Cells were incubated for a further 5 hours at 37° C./5% CO2 in RPMI 1640 containing 100 μM L-arginine and 100 μM verapamil-HCl in the presence and absence of test compounds. Nitrite accumulation was determined by mixing an equal volume of culture media with Griess reagent (10 mg/ml sulphanilamide, 1 mg N-(1-naphthyl)ethylenediamine in 1 ml 2.5% (v/v) phosphoric acid). Inhibition in the presence of compounds was calculated relative to the nitrite levels produced by untreated cells. IC50 values were estimated from a semi-log plot of % inhibition versus concentration of compound.

IC50 [µM]	Compound
< 100	N#Cc1sccc1S[C@H](C[C@H](N)CO)c1ccccc1 [Example 1, 3-[[(1R,3S)-3-Amino-4-hydroxy-1-phenylbutyl]thio]-2-thiophenecarbonitrile oxalate]
< 100	Cc1cc(S[C@H](C[C@H](N)CO)c2ccccc2)c(C#N)s1 [Example 2, 3-[[(1R,3S)-3-Amino-4-hydroxy-1-phenylbutyl]thio]-5-methyl-2-thiophenecarbonitrile Oxalate]

Reference: patent US20050203172A1, “Novel compounds” (priority 2002, published 2005)
